Experimental data published in ChEMBL document CHEMBL1150315, “Potent and orally bioavailable zwitterion GnRH antagonists with low CYP3A4 inhibitory activity” (Bioorg Med Chem Lett, 2008).

Tests used:
[1] = Volume of distribution in cynomolgus monkey at 10 mg/kg, iv; type: ADME, organism-based, Macaca fascicularis; parameters: dose 10 mg/kg, route intravenous; conditions: in vivo
[2] = Tmax in Sprague-Dawley rat at 10 mg/kg, po or 10 mg/kg, iv; type: ADME, organism-based; conditions: in vivo
[3] = Oral bioavailability in cynomolgus monkey at 10 mg/kg; type: ADME, organism-based, Macaca fascicularis; conditions: in vivo
[4] = Volume of distribution in Sprague-Dawley rat at 10 mg/kg, iv; type: ADME, organism-based; parameters: dose 10 mg/kg, route intravenous; conditions: in vivo
[5] = AUC in Sprague-Dawley rat at 10 mg/kg, po; type: ADME, organism-based; parameters: dose 10 mg/kg, route oral; conditions: plasma
[6] = Clearance in cynomolgus monkey at 10 mg/kg, iv; type: ADME, organism-based, Macaca fascicularis; parameters: dose 10 mg/kg, route intravenous; conditions: in vivo
[7] = Lipophilicity, log D at pH 7.4; type: physicochemical; conditions: buffer
[8] = AUC in cynomolgus monkey at 10 mg/kg, po; type: ADME, organism-based, Macaca fascicularis; parameters: dose 10 mg/kg, route oral; conditions: plasma
[9] = Tmax in cynomolgus monkey at 10 mg/kg, po; type: ADME, organism-based, Macaca fascicularis; parameters: dose 10 mg/kg, route oral; conditions: in vivo
[10] = Clearance in Sprague-Dawley rat at 10 mg/kg, iv; type: ADME, organism-based; parameters: dose 10 mg/kg, route intravenous; conditions: in vivo
[11] = Cmax in Sprague-Dawley rat at 10 mg/kg, po or 10 mg/kg, iv; type: ADME, organism-based; conditions: in vivo
[12] = Half life in cynomolgus monkey at 10 mg/kg, iv; type: ADME, organism-based, Macaca fascicularis; parameters: dose 10 mg/kg, route intravenous; conditions: in vivo
[13] = Half life in Sprague-Dawley rat at 10 mg/kg, iv; type: ADME, organism-based; parameters: dose 10 mg/kg, route intravenous; conditions: in vivo
[14] = Cmax in cynomolgus monkey at 10 mg/kg, po; type: ADME, organism-based, Macaca fascicularis; parameters: dose 10 mg/kg, route oral; conditions: in vivo
[15] = Oral bioavailability in Sprague-Dawley rat at 10 mg/kg; type: ADME, organism-based; conditions: in vivo
[16] = Dissociation constant, pKa of the compound; type: physicochemical

SMILES: O=C(O)CCCN[C@@H](Cn1c(=O)c(-c2ccccc2Cl)cn(Cc2c(F)cccc2C(F)(F)F)c1=O)c1ccccc1
- Vd [1]: 4.9 L/kg
- Tmax [2]: 15 min
- bioavailability [3]: 52.7%
- Vd [4]: 1.3 L/kg
- AUC [5]: 132 ng·h/mL
- clearance [6]: 7.9 mL/min/kg
- logD [7]: 2.1
- AUC [8]: 11100 ng·h/mL
- Tmax [9]: 37.8 min
- clearance [10]: 37.6 mL/min/kg
- Cmax [11]: 149 ng/mL
- half-life [12]: 450 min
- half-life [13]: 24 min
- Cmax [14]: 7870 ng/mL
- bioavailability [15]: 3%

SMILES: COc1cccc(-c2cn(Cc3c(F)cccc3C(F)(F)F)c(=O)n(C[C@H](NCCCC(=O)O)c3ccccc3)c2=O)c1F
- Vd [1]: 1.8 L/kg
- Tmax [2]: 15 min
- bioavailability [3]: 22.6%
- Vd [4]: 1.7 L/kg
- AUC [5]: 63.3 ng·h/mL
- clearance [6]: 20.9 mL/min/kg
- logD [7]: 1.8
- AUC [8]: 1900 ng·h/mL
- pKa [16]: 4.16
- Tmax [9]: 30 min
- clearance [10]: 64.1 mL/min/kg
- Cmax [11]: 77 ng/mL
- half-life [12]: 60 min
- half-life [13]: 18 min
- Cmax [14]: 2040 ng/mL
- bioavailability [15]: 2.4%
